Data set [1] addresses T1, soluble epoxide hydrolase (sEH) (Rattus norvegicus, UniProt P80299).
T1 sequence (P80299 1-554): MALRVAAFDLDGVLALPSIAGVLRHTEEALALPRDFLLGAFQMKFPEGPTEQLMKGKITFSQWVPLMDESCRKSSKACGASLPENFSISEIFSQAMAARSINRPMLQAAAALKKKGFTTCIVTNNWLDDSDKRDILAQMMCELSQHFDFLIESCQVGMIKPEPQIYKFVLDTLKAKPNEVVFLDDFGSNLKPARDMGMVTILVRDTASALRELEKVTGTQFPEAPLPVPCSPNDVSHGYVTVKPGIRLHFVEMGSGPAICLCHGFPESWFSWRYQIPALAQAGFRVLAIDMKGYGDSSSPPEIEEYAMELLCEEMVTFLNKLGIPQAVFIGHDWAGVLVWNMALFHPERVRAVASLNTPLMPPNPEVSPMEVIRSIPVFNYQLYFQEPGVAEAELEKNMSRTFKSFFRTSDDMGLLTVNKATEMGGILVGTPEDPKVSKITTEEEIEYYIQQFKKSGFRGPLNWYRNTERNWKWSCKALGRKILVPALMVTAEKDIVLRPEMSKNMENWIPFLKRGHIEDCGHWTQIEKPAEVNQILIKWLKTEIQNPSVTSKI
Nature of the data set: In vivo displacement assay in rat. The note with it: TCU 0.1 mg/kg, second compound 3 mg/kg, oral gavage.

The test system of the next data set is rat sEH. Briefly: IC50 determination for sEH inhibitors. The data set is classed as biochemical. Conditions: potency ratio on rat sEH, Table S1.
For data set [2] the following is noted: patients, cited from earlier work.

Where only a bound is given, the exact number is not on record here.

For `CC[C@H](C)C(=O)N1CCC(NC(=O)Nc2c(F)cccc2F)CC1` [DFPU, (S)-1-(2,6-difluorophenyl)-3-(1-(2-methylbutanoyl)piperidin-4-yl)urea], the “displacement of sEH-bound TCU by second compound at 168 h” value in data set [1] was “could not be displaced”. Further, in the data set with rat sEH, the “fold less potent than TIPU” value is ~16 666 fold.

For `COC(=O)[C@H](c1ccccc1Cl)N1CCc2sccc2C1` [clopidogrel], the “time until which effect is maintained” value in data set [2] (beyond 24 h) is listed as 7 days. Besides, the “time within which majority is cleared from dosing” value in data set [2] is reported as at most 6 h.
